Patent US20060088496A1, “Personal care compositions with salts of hydroxypropyl trialkylammonium substituted mono-saccharide” (Unilever Home & Personal Care USA, Division of Conopco, Inc., priority 2004, published 2006)

System: Porcine epidermis
Assay: moisturization efficacy test: weight change of porcine skin with relative humidity on an environmental microbalance
Conditions: difference in percent weight change, treated minus untreated skin, 1% active material in water solution; for From 0 to 80 to 20% Relative Humidity: 90 minutes at 20% relative humidity after 80% (water retained); for From 0 through 80% Relative Humidity: 90 minutes at 80% relative humidity (water picked up)
Procedure: This Example provides the results of moisturization efficacy tests. These tests involved evaluation on Porcine epidermis utilized as a human skin model. Equipment and protocol are outlined below. An environmental microbalance (Model MB-300W, VTI Corp., 2708 W 84th Street, Hialeah, Fla. 33016) was programmed to measure the change in weight of porcine skin as a function of relative humidity at a constant temperature and air flow. The porcine skin was evaluated before and after treatment with aqueous solutions of humectants to determine adsorption and retention of moisture. Sample preparation was done as follows: • Epidermal sections of porcine skin were cut to approximately 4 cm×1 cm. • The skin was washed in a 10% detergent solution and dried in a dessicator to a constant weight. This represents the Untreated material. • The skin was soaked in a 1% by weight aqueous solution of the test sample for 15 minutes, excess fluid was blotted off and the skin was dried to constant weight in a dessicator. This represents the Treated material. Sequence of conditions for the microbalance was as follows: • 30 minutes at 0% relative humidity. (Insures that sample is dry.) • 90 minutes at 80% relative humidity. […] (Determines amount of water retained.) The experiments were conducted as follows: • The weight of a piece of untreated skin was recorded continuously during the sequence. • The piece of untreated skin was treated with the test sample. • The weight of the treated piece of skin was recorded continuously during the sequence. • Data reduction consisted of calculating the percent weight change from the initial weight for the untreated and treated pieces of skin. The reported data was the difference between each treated piece and its corresponding untreated piece.

Row | SMILES | From 0 to 80 to 20% Relative Humidity | From 0 through 80% Relative Humidity
1 | C[N+](C)(C)CC(O)CCl.[Cl-] (stereo not shown) [Quat ® 188, 3-chloro-2-hydroxypropyl trimethylammonium chloride] | 0.10 | 0.21
2 | OCC(O)CO [Glycerin] | 0.10 | 0.21
